target: T1, recombinant human CL receptor/RAMP1 (Homo sapiens, UniProt O60894+Q16602); experiment: RECOMBINANT RECEPTOR BINDING ASSAY (125I-hCGRP); details: 125I-hCGRP binding to membranes of HEK 293 cells expressing recombinant human CL receptor/RAMP1; stated as 'generally ... less than about'
T1 construct: expressed in transfected cells; membranes
Experimental: RECOMBINANT RECEPTOR: Human CL receptor (Genbank accession number L76380) was subcloned into the expression vector pIREShyg2 (BD Biosciences Clontech) as a 5′NheI and 3′ PmeI fragment. Human RAMP1 (Genbank accession number AJ001014) was subcloned into the expression vector pIRESpuro2 (BD Biosciences Clontech) as a 5′NheI and 3′NotI fragment. HEK 293 cells (human embryonic kidney cells; ATCC #CRL-1573) were cultured in DMEM with 4.5 g/L glucose, 1 mM sodium pyruvate and 2 mM glutamine supplemented with 10% fetal bovine serum (FBS), 100 units/mL penicillin and 100 μg/mL streptomycin, and maintained at 37° C. and 95% humidity. Cells were subcultured by treatment with 0.25% trypsin with 0.1% EDTA in HBSS. Stable cell line generation was accomplished by co-transfecting 10 μg of DNA with 30 μg Lipofectamine 2000 (Invitrogen) in 75 cm^2 flasks. CL receptor and RAMP1 expression constructs were co-transfected in equal amounts. Twenty-four hours after transfection the cells were diluted and selective medium (growth medium+300 μg/mL hygromycin and 1 μg/mL puromycin) was added the following day. A clonal cell line was generated by single cell deposition utilizing a FACS Vantage SE (Becton Dickinson). Growth medium was adjusted to 150 μg/mL hygromycin and 0.5 μg/mL puromycin for cell propagation.
RECOMBINANT RECEPTOR BINDING ASSAY: Cells expressing recombinant human CL receptor/RAMP1 were washed with PBS and harvested in harvest buffer containing 50 mM HEPES, 1 mM EDTA and Complete protease inhibitors (Roche). The cell suspension was disrupted with a laboratory homogenizer and centrifuged at 48,000 g to isolate membranes. The pellets were resuspended in harvest buffer plus 250 mM sucrose and stored at −70° C. For binding assays, 20 μg of membranes were incubated in 1 ml binding buffer (10 mM HEPES, pH 7.4, 5 mM MgCl2, and 0.2% BSA) for 3 hours at room temperature containing […] ^125I-hCGRP (GE Healthcare) and antagonist. The assay was terminated by filtration through 96-well GFB glass fiber filter plates (PerkinElmer) that had been blocked with 0.05% polyethyleneimine. The filters were washed 3 times with ice-cold assay buffer (10 mM HEPES, pH 7.4 and 5 mM MgCl2). Scintillation fluid was added and the plates were counted on a Topcount (Packard). Non-specific binding was determined and the data analysis was carried out with the apparent dissociation constant (Ki) determined by using a non-linear least squares fitting the bound CPM data to the equation below:
[formula] […]

T1 sequence (Q16602 23-461): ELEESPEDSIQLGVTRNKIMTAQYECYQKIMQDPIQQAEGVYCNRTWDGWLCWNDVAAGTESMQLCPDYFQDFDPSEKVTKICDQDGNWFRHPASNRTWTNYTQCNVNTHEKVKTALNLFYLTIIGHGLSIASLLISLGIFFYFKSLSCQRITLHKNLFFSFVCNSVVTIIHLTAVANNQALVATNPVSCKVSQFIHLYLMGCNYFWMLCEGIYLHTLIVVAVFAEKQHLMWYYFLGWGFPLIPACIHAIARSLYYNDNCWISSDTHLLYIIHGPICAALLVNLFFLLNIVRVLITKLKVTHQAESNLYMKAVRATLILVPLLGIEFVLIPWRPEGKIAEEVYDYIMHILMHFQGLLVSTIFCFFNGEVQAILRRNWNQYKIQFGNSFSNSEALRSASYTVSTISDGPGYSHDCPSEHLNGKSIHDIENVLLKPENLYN
T1 sequence (O60894 27-148): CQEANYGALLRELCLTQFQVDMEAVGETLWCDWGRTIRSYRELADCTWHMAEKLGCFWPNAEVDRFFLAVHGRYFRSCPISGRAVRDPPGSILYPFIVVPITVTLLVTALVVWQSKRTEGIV

Ki, < 50 µM:
CN1C[C@@](C)(c2cc(F)cc(F)c2)N(C/C=C/c2ccc3c(c2)C[C@@]2(C3)C(=O)Nc3ncccc32)C(=O)C12CCCC2 [Example 8]
CN1C[C@@](C)(c2cc(F)cc(F)c2)N(CCCc2ccc3c(c2)C[C@@]2(C3)C(=O)Nc3ncccc32)C(=O)C12CCCC2 [Example 9]
C[C@@]1(c2cc(F)cc(F)c2)CNC2(CCCC2)C(=O)N1CCOc1ccc2c(c1)C[C@@]1(C2)C(=O)Nc2ncccc21 [Example 13]
CN1C[C@@](C)(c2cc(F)cc(F)c2)N(CCOc2ccc3c(c2)C[C@@]2(C3)C(=O)Nc3ncccc32)C(=O)C12CCCC2 [Example 15]

Source: patent US8765759B2, “Monocyclic CGRP receptor antagonists” (Merck Sharp & Dohme Corp., priority 2008, dated 2014)
